Here are results for 5 compounds from ChEMBL document CHEMBL1201862, “PubChem BioAssay data set” (2004).

Assay [1] addresses Glucose-6-phosphate 1-dehydrogenase (Homo sapiens, UniProt P11413). Description: human G6PD enzyme inhibitors, dose response, selectivity assay for P. falciparum G6PD inhibitor project, biochemical, fluorescence (AID 504792). It is filed as functional.
Assay [2] concerns the target Cystic fibrosis transmembrane conductance regulator/Golgi-associated PDZ and coiled-coil motif-containing protein (Homo sapiens, UniProt P13569+Q9HD26). Description: CAL PDZ peptide-binding inhibitors, dose response, biochemical, fluorescence polarization, Cerulean-tagged CAL PDZ, cherry-picks (AID 504773). Background: Fluorescence polarisation rises when a labelled molecule tumbles more slowly, as on binding a larger partner.

In assay [3] the target is T1, Replicative DNA helicase DnaB (Mycobacterium tuberculosis, UniProt P9WMR3).
T1 sequence (P9WMR3 whole entry): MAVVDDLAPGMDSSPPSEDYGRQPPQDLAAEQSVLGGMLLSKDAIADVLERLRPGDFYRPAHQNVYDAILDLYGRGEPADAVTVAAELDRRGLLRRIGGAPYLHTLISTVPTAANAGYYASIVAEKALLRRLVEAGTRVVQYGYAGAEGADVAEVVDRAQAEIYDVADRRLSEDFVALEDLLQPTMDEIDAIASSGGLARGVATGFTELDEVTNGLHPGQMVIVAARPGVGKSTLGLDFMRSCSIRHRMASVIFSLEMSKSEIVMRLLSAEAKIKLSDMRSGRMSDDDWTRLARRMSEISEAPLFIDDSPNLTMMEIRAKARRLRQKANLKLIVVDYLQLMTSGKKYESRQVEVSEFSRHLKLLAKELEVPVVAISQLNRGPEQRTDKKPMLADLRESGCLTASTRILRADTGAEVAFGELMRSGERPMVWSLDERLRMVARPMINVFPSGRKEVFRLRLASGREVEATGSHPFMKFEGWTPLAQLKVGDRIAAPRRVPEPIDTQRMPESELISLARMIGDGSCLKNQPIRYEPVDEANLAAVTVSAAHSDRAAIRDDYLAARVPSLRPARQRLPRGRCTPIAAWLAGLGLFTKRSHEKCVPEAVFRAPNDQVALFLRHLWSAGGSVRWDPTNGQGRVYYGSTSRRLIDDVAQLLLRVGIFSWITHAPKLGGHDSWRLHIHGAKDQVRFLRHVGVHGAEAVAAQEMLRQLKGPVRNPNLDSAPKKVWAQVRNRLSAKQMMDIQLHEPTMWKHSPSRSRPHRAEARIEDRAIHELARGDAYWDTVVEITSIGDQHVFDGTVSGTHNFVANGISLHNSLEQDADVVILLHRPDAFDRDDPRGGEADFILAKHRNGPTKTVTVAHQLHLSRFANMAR
Description: DnaB intein splicing inhibitors, dose response, biochemical, cell-free fluorescence (AID 449749). It is filed as functional.

Another assay addresses Genome polyprotein (dengue virus type 2, UniProt P29990). Description: Dengue-2 NS5 methyltransferase inhibitors, primary screen, biochemical, confirmation dose response (AID 588689). It counts as functional.
In assay [4] the target is Polyadenylate-binding protein 1 (Homo sapiens, UniProt P11940). As to the kind of experiment: PABP1 MLLE–PAM2 interaction inhibitors, dose response, miRNA deadenylation inhibitor project, biochemical, fluorescence polarization, Cy5-PAM2 peptide, secondary (AID 602260). It is filed as functional. The following applies: read-out: IC50_Mean.
Assay [5] has as its target T2, Sentrin-specific protease 7 (Homo sapiens, UniProt Q9BQF6).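 Note: Luminescence-based dose-response confirmation of ultra-high-throughput screening hits, measuring inhibition of SENP7.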
T2 sequence (Q9BQF6 whole entry): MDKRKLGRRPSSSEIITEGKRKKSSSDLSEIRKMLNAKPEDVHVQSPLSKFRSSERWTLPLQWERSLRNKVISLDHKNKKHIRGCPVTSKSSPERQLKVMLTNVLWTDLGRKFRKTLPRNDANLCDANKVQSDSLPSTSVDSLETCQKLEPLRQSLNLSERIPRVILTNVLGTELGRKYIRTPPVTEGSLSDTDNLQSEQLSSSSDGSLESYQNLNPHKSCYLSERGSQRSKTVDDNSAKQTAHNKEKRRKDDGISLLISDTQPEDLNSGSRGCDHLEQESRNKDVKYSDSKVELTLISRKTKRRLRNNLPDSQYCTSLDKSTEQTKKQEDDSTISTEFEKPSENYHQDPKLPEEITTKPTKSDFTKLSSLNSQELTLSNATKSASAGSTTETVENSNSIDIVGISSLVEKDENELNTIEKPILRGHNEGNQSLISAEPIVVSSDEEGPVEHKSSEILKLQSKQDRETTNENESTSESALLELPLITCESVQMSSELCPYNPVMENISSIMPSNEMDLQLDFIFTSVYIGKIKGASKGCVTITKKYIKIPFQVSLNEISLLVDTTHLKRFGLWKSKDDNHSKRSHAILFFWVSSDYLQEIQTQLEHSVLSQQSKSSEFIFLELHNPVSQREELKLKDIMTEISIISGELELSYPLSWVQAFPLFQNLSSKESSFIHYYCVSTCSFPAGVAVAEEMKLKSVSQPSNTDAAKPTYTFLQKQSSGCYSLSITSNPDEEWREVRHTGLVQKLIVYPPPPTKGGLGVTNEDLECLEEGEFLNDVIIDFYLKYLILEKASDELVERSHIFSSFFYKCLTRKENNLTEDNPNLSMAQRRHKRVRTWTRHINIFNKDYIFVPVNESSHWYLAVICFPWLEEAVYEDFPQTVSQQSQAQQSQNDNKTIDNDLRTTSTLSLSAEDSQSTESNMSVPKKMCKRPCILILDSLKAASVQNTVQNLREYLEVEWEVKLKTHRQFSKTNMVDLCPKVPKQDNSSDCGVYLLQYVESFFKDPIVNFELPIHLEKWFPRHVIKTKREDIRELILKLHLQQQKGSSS
It is filed as functional.

Assay [6] has as its system BJ. Description: cytotoxicity toward BJ-TERT fibroblasts, dose response, cell-based, RAS-independent, luminescence (AID 1933). It counts as functional. The following applies: Homo sapiens.
A short description of assay [7]: cytotoxicity toward DRD oncogenic fibroblasts, dose response, cell-based, non-viral oncogenic, luminescence (AID 1934). It is filed as functional. Conditions: Homo sapiens.
In assay [8] the test system is BJ. As to the kind of experiment: cytotoxicity toward Ras-transformed BJeLR fibroblasts, dose response, cell-based, alamar blue fluorescence, cherrypicked samples (AID 2631).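 Note: confirmatory dose-response assay in RAS-dependent BJ fibroblasts engineered with TERT, LT and ST, with cytotoxicity read by fluorescence.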 It counts as functional. The following applies: Homo sapiens.

The source made the active and inactive calls. Some results are limits rather than exact numbers.

Chain of Glucose-6-phosphate 1-dehydrogenase (P11413 whole entry): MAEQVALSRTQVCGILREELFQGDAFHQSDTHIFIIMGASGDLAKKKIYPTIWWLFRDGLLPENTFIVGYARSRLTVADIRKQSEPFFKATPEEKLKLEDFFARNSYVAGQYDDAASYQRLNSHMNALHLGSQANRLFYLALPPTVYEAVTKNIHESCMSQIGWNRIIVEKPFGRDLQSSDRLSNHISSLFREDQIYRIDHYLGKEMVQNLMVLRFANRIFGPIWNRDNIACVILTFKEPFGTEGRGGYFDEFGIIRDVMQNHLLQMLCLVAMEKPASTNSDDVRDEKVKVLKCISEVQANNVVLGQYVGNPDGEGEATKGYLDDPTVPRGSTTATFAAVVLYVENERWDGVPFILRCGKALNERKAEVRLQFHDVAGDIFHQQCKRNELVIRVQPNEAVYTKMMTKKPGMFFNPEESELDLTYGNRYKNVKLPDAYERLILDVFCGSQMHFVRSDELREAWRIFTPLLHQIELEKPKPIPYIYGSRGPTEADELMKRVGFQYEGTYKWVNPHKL
Chain of Genome polyprotein (P29990 2492-3391 limits assumed): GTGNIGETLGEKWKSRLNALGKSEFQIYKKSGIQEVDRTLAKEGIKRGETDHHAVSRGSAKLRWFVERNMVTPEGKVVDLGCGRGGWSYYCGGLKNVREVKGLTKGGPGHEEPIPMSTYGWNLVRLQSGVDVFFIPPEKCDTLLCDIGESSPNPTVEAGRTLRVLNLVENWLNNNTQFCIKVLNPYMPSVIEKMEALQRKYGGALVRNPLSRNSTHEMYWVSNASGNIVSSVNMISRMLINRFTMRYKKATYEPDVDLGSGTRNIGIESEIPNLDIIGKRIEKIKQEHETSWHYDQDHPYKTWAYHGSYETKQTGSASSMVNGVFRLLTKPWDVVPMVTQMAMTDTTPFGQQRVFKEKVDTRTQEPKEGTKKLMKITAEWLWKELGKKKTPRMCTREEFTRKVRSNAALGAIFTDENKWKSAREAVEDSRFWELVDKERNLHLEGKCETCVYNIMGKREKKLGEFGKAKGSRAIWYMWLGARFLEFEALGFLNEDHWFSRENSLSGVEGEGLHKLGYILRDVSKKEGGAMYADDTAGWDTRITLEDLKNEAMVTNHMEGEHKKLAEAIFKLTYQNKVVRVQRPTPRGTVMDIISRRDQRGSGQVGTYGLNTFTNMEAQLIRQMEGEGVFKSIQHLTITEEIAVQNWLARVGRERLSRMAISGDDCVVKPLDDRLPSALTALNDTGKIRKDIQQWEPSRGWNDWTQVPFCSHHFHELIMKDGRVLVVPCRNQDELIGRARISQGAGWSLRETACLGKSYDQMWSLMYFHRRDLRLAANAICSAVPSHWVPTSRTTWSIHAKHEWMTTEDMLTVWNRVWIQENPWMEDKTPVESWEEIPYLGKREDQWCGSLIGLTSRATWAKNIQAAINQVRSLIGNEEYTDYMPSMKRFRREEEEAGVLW
Chain of Polyadenylate-binding protein 1 (P11940 whole entry): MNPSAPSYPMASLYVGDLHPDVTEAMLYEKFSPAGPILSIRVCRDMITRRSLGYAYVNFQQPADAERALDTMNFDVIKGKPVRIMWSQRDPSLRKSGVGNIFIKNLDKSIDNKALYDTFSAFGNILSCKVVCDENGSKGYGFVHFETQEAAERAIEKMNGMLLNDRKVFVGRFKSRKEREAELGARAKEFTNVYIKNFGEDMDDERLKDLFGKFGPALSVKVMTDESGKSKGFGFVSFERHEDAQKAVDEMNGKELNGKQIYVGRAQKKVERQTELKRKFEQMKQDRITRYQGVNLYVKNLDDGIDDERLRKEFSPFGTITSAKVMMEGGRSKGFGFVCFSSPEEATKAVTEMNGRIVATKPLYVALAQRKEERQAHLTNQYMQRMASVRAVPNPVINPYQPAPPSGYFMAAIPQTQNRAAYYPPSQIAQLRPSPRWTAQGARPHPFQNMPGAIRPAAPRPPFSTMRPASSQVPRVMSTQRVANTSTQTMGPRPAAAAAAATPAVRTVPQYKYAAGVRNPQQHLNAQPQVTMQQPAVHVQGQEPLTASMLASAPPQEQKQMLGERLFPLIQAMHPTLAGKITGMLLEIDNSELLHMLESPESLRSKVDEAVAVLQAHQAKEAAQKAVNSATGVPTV
Chain of Cystic fibrosis transmembrane conductance regulator/Golgi-associated PDZ and coiled-coil motif-containing protein (P13569 whole entry, other chains not shown): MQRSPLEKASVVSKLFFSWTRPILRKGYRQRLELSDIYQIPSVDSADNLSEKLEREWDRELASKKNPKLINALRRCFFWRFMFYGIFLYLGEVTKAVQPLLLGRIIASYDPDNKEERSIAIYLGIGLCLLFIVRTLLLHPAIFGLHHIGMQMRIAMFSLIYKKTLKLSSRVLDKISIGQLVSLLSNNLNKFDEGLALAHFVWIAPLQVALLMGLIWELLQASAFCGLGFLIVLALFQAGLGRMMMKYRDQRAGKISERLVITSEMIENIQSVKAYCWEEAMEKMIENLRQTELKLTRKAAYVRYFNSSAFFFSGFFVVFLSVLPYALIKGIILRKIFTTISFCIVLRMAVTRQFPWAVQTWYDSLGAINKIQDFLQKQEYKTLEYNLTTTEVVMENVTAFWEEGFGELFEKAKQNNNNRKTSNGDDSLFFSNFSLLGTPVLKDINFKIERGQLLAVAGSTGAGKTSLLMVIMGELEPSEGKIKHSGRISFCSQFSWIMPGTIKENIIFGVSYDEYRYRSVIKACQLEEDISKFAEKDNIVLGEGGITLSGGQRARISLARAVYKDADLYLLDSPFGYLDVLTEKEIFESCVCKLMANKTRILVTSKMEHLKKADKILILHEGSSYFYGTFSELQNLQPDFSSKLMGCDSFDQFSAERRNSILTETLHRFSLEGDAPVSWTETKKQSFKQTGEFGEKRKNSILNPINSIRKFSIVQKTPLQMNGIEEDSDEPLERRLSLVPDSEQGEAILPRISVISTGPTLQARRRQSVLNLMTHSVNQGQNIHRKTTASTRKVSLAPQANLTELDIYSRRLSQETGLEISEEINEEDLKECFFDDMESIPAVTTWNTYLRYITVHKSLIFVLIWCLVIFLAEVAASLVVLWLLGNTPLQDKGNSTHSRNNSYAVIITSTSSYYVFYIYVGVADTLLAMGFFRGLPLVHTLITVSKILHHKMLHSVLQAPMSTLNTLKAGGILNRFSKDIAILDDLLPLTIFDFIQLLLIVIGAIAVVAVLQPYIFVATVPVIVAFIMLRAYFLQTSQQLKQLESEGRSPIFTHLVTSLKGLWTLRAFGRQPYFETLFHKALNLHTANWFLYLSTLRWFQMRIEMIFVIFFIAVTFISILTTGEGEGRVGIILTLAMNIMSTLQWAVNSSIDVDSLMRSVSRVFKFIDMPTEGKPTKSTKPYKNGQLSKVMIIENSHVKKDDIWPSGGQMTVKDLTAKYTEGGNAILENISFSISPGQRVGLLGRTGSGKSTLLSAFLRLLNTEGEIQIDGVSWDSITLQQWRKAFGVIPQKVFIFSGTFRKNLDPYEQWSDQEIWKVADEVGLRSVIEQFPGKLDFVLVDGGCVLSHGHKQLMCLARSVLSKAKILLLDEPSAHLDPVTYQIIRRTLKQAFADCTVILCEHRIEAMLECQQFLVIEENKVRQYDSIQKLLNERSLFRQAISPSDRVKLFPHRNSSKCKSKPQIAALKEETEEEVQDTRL

The term AC50 denotes the concentration at which the activity in the assay is half-maximal. As to `O=C(O)CSc1cc(NS(=O)(=O)c2ccc(Cl)cc2)c2ccccc2c1O`, the IC50 in assay [1] was 29.9 µM (inactive); on Genome polyprotein, 7.15 µM (active); in assay [4], > 66 µM (inactive). Moreover, the AC50 in assay [2] is 30 µM (active); in assay [3], 2.91 µM (active).
Take `Oc1ccccc1/C=C/c1noc(-c2ccccc2O)n1`: the IC50 in [5] is 3.46 µM (active).
As a reminder, the EC50 is the concentration at which the effect is half-maximal. With `Cc1nn(-c2ccccc2)c(Cl)c1CN(C(=O)CCl)c1ccc(Cl)cc1`, the results for the EC50 (in the assay with BJ [6]; in [7]; in the assay on BJ [8]) were 0.707 µM (inconclusive), 1.92 µM (active) and 0.515 µM (active), respectively. Besides, the AC50 in [3] was 1.52 µM (active).
In the case of `Cc1cccc(N=Nc2ccc(N(C)C)cc2)c1`, in [5], the IC50 was 2.52 µM (active).
`COc1ccccc1N1C(=O)Cc2ccccc2C1=O`: the IC50 in assay [5] is 31.2 µM (active). The AC50 in [3] is > 380 µM (inactive).
